Measurements taken from the supplement of paper PMC10307832.

Experiments:
Experiment in all cases: relative viability (nuclei count vs DMSO), 5 days (fraction); higher = more cells survive
201T = system: 201T
Summary of the method: (§1)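 Nuclei were stained with Hoechst during a one-step fixation (final 0.05% Triton X-100, 1% formaldehyde, 1 ug/ml Hoechst) carried out 5 days after dosing, then counted on 4× images. The cells, lung cancer lines in 1536-well plates, had been dosed by pin tool the day after seeding with one drug alone or a fixed anchor-drug dose plus five library-drug doses (not always all listed) in √10 steps. Relative viability is the nuclei count in treated wells divided by that in vehicle wells, and each value is the median of duplicate plates.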

CAL-12T = system: CAL-12T
Summary of the method: as §1

COR-L23 = system: COR-L23
Summary of the method: as §1

HOP-62 = system: HOP-62
Summary of the method: as §1

LC-2-ad = system: LC-2-ad
Summary of the method: as §1

NCI-H1355 = system: NCI-H1355
Summary of the method: as §1

NCI-H1395 = system: NCI-H1395
Summary of the method: as §1

NCI-H1651 = system: NCI-H1651
Summary of the method: as §1

NCI-H1666 = system: NCI-H1666
Summary of the method: as §1

NCI-H1734 = system: NCI-H1734
Summary of the method: as §1

NCI-H1944 = system: NCI-H1944
Summary of the method: as §1

NCI-H1993 = system: NCI-H1993
Summary of the method: as §1

NCI-H2085 = system: NCI-H2085
Summary of the method: as §1

NCI-H2228 = system: NCI-H2228
Summary of the method: as §1

NCI-H322M = system: NCI-H322M
Summary of the method: as §1

NCI-H520 = system: NCI-H520
Summary of the method: as §1

NCI-H661 = system: NCI-H661
Summary of the method: as §1

NCI-H838 = system: NCI-H838
Summary of the method: as §1

RERF-LC-KJ = system: RERF-LC-KJ
Summary of the method: as §1

**Q.** What does the source list for COCC1(CO)C(=O)C2CCN1CC2 (stereo not given) [PRIMA-1MET] + C[C@]1(O)C[C@@H](c2nc(-c3ccc4ccc(-c5ccccc5)nc4c3)c3c(N)nccn32)C1 [Linsitinib] (partner 1 µM)?
**A.** relative viability (201T; first compound 0.2 µM): 1.11; relative viability (201T; first compound 0.6325 µM): 1.05; relative viability (201T; first compound 2 µM): 0.934; relative viability (201T; first compound 6.325 µM): 1.11; relative viability (201T; first compound 20 µM): 1; relative viability (CAL-12T; first compound 0.2 µM): 0.725; relative viability (CAL-12T; first compound 0.6325 µM): 0.733; relative viability (CAL-12T; first compound 2 µM): 0.745; relative viability (CAL-12T; first compound 6.325 µM): 0.85; relative viability (CAL-12T; first compound 20 µM): 0.543; relative viability (COR-L23; first compound 0.2 µM): 0.94; relative viability (COR-L23; first compound 0.6325 µM): 0.942; relative viability (COR-L23; first compound 2 µM): 0.978; relative viability (COR-L23; first compound 6.325 µM): 0.873; relative viability (COR-L23; first compound 20 µM): 0.0228; relative viability (HOP-62; first compound 0.2 µM): 1.08; relative viability (HOP-62; first compound 0.6325 µM): 0.976; relative viability (HOP-62; first compound 2 µM): 0.9; relative viability (HOP-62; first compound 6.325 µM): 0.987; relative viability (HOP-62; first compound 20 µM): 0.746; relative viability (LC-2-ad; first compound 0.2 µM): 0.967; relative viability (LC-2-ad; first compound 0.6325 µM): 0.843; relative viability (LC-2-ad; first compound 2 µM): 0.754; relative viability (LC-2-ad; first compound 6.325 µM): 0.858; relative viability (LC-2-ad; first compound 20 µM): 0.598; relative viability (NCI-H1355; first compound 0.2 µM): 0.998; relative viability (NCI-H1355; first compound 0.6325 µM): 0.796; relative viability (NCI-H1355; first compound 2 µM): 0.68; relative viability (NCI-H1355; first compound 6.325 µM): 0.81; relative viability (NCI-H1355; first compound 20 µM): 0.76; relative viability (NCI-H1395; first compound 0.2 µM): 1.1; relative viability (NCI-H1395; first compound 0.6325 µM): 0.909; relative viability (NCI-H1395; first compound 2 µM): 0.958; relative viability (NCI-H1395; first compound 6.325 µM): 1.61; relative viability (NCI-H1395; first compound 20 µM): 0.859; relative viability (NCI-H1651; first compound 0.2 µM): 1.13; relative viability (NCI-H1651; first compound 0.6325 µM): 0.981; relative viability (NCI-H1651; first compound 2 µM): 0.907; relative viability (NCI-H1651; first compound 6.325 µM): 0.955; relative viability (NCI-H1651; first compound 20 µM): 0.839; relative viability (NCI-H1666; first compound 0.2 µM): 0.794; relative viability (NCI-H1666; first compound 0.6325 µM): 0.781; relative viability (NCI-H1666; first compound 2 µM): 0.833; relative viability (NCI-H1666; first compound 6.325 µM): 0.742; relative viability (NCI-H1666; first compound 20 µM): 0.134; relative viability (NCI-H1734; first compound 0.2 µM): 0.972; relative viability (NCI-H1734; first compound 0.6325 µM): 0.808; relative viability (NCI-H1734; first compound 2 µM): 0.824; relative viability (NCI-H1734; first compound 6.325 µM): 0.818; relative viability (NCI-H1734; first compound 20 µM): 0.51; relative viability (NCI-H1944; first compound 0.2 µM): 1.27; relative viability (NCI-H1944; first compound 0.6325 µM): 0.95; relative viability (NCI-H1944; first compound 6.325 µM): 1.27; relative viability (NCI-H1944; first compound 20 µM): 1.17; relative viability (NCI-H1993; first compound 0.2 µM): 0.708; relative viability (NCI-H1993; first compound 0.6325 µM): 0.794; relative viability (NCI-H1993; first compound 2 µM): 0.656; relative viability (NCI-H1993; first compound 6.325 µM): 0.725; relative viability (NCI-H1993; first compound 20 µM): 0.757; relative viability (NCI-H2085; first compound 0.2 µM): 1; relative viability (NCI-H2085; first compound 0.6325 µM): 0.826; relative viability (NCI-H2085; first compound 2 µM): 0.866; relative viability (NCI-H2085; first compound 6.325 µM): 0.731; relative viability (NCI-H2085; first compound 20 µM): 0.287; relative viability (NCI-H2228; first compound 0.2 µM): 0.735; relative viability (NCI-H2228; first compound 0.6325 µM): 0.552; relative viability (NCI-H2228; first compound 2 µM): 0.602; relative viability (NCI-H2228; first compound 6.325 µM): 0.61; relative viability (NCI-H2228; first compound 20 µM): 0.046; relative viability (NCI-H322M; first compound 0.2 µM): 0.932; relative viability (NCI-H322M; first compound 6.325 µM): 0.942; relative viability (NCI-H322M; first compound 20 µM): 0.862; relative viability (NCI-H520; first compound 0.2 µM): 1.05; relative viability (NCI-H520; first compound 0.6325 µM): 1; relative viability (NCI-H520; first compound 6.325 µM): 0.869; relative viability (NCI-H520; first compound 20 µM): 0.0887; relative viability (NCI-H661; first compound 0.2 µM): 0.561; relative viability (NCI-H661; first compound 0.6325 µM): 0.507; relative viability (NCI-H661; first compound 6.325 µM): 0.532; relative viability (NCI-H661; first compound 20 µM): 0.283; relative viability (NCI-H838; first compound 0.2 µM): 1.21; relative viability (NCI-H838; first compound 0.6325 µM): 1.02; relative viability (NCI-H838; first compound 2 µM): 1.04; relative viability (NCI-H838; first compound 6.325 µM): 1.14; relative viability (NCI-H838; first compound 20 µM): 1.06; relative viability (RERF-LC-KJ; first compound 0.2 µM): 0.961; relative viability (RERF-LC-KJ; first compound 0.6325 µM): 0.955; relative viability (RERF-LC-KJ; first compound 2 µM): 0.832; relative viability (RERF-LC-KJ; first compound 6.325 µM): 0.922; relative viability (RERF-LC-KJ; first compound 20 µM): 0.875
